Measured values: ChEMBL document CHEMBL1150369, “Conformation-opioid activity relationships of bicyclic guanidines from 3D similarity analysis” (Bioorg Med Chem, 2008)

biological target: Kappa-type opioid receptor (Cavia porcellus, UniProt P41144); assay: Displacement of [3H]U69593 from kappa opioid receptor in guinea pig brain homogenate; format: tissue-based
Sequence (P41144 whole entry): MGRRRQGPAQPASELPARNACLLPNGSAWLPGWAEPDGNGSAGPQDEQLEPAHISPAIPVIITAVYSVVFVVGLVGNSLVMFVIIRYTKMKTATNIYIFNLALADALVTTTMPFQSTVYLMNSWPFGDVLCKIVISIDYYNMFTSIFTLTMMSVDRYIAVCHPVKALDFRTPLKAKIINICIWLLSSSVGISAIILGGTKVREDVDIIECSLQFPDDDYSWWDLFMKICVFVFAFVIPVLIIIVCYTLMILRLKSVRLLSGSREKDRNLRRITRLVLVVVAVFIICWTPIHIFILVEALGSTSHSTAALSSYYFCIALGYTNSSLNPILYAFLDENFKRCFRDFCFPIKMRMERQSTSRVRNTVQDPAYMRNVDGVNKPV

`CC(C)C[C@@H]1CN2C(=NC[C@@H]2C2CCCCC2)N1CCC12CC3CC(CC(C3)C1)C2` and `CC(C)C[C@@H]1CN2C(=NC[C@H]2C2CCCCC2)N1CCC12CC3CC(CC(C3)C1)C2` are within 1.5-fold of each other in IC50: 1210 nM for the first, 1750 nM for the second.

Compared with `C1CCC([C@H]2CN3C(=NC[C@@H]3C3CCCCC3)N2CCC23CC4CC(CC(C4)C2)C3)CC1`, `C1CCC([C@H]2CN3C(=NC[C@H]3C3CCCCC3)N2CCC23CC4CC(CC(C4)C2)C3)CC1` is higher in IC50: 1490 nM for the first, > 10000 nM for the second.

Going from `COc1ccc(C[C@H]2CN3C(=NC[C@@H]3C)N2CCC23CC4CC(CC(C4)C2)C3)cc1` to `CCOc1ccc(C[C@@H]2CN3C(=NC[C@@H]3C)N2CCC23CC4CC(CC(C4)C2)C3)cc1`, the IC50 falls from 1530 nM to 151 nM (10-fold). The second is the more potent here.

Going from `C[C@H]1CN=C2N(CCC34CC5CC(CC(C5)C3)C4)[C@@H](C3CCCCC3)CN21` to `C[C@H]1CN2C(=NC[C@@H]2C)N1CCC12CC3CC(CC(C3)C1)C2`, the IC50 rises from 1940 nM to > 10000 nM. The first is the more potent here.

First: CC(C)C[C@@H]1CN2C(=NC[C@@H]2C)N1CCC12CC3CC(CC(C3)C1)C2
Second: CC(C)C[C@@H]1CN2C(=NC[C@@H]2C)N1CCC1CC2CCC1C2 (stereo not given in full)
The IC50 of the first is 1.6-fold higher: 3640 nM for the first, 2310 nM for the second. The second is the more potent here.

Going from `CCOc1ccc(C[C@@H]2CN3C(=NC[C@@H]3C)N2CCC2CC3CCC2C3)cc1` (stereo not given in full) to `CCOc1ccc(C[C@@H]2CN3C(=NC[C@@H]3CC)N2CCC2CC3CCC2C3)cc1` (stereo not given in full), the IC50 rises from 185 nM to 321 nM (1.7-fold). The first is the more potent here.

Compared with `CCCC[C@@H]1CN=C2N(CCC3CC4CCC3C4)[C@H](Cc3ccc(OC)cc3)CN21` (stereo not given in full), `CCC[C@H]1CN=C2N(CC3CCC3)[C@@H](Cc3ccc(OC)cc3)CN21` is higher in IC50: 430 nM for the first, > 10000 nM for the second. The first is the more potent here.

Compared with `COc1ccc(C[C@@H]2CN3C(=NC[C@H]3CC3CCCCC3)N2CCC23CC4CC(CC(C4)C2)C3)cc1`, `COc1ccc(C[C@H]2CN3C(=NC[C@@H]3C3CCCCC3)N2CCC23CC4CC(CC(C4)C2)C3)cc1` is 11-fold higher in IC50: 457 nM for the first, 4920 nM for the second. The first is the more potent here.

`COc1ccc(C[C@H]2CN3C(=NC[C@H]3CC3CCCCC3)N2CC2CCCC2)cc1` and `CCC[C@H]1CN=C2N(CC3CCC3)[C@H](Cc3ccc(OC)cc3)CN21` cannot be ordered by IC50: > 10000 nM for the first, > 10000 nM for the second.

`COc1ccc(C[C@H]2CN3C(=NC[C@@H]3C(C)C)N2CC2CCCC2)cc1` and `COc1ccc(C[C@@H]2CN3C(=NC[C@@H]3C3CCCCC3)N2CCC23CC4CC(CC(C4)C2)C3)cc1` cannot be ordered by IC50: > 10000 nM for the first, > 10000 nM for the second.

First: CC(C)C[C@H]1CN2C(=NC[C@@H]2C)N1CCCC1CCCCC1
Second: CC(C)C[C@@H]1CN2C(=NC[C@@H]2C)N1CCCC1CCCCC1
The IC50 of the first is higher: > 10000 nM for the first, 5440 nM for the second. The second is the more potent here.

Going from `CC(C)[C@H]1CN2C(=NC[C@@H]2C)N1CCCCC1CCCCC1` to `CC(C)C[C@@H]1CN2C(=NC[C@H]2C2CCCCC2)N1CCCC1CCCCC1`, the IC50 falls from > 10000 nM to 1770 nM.

First: COc1ccc(C[C@@H]2CN3C(=NC[C@H]3C3CCCCC3)N2CCC23CC4CC(CC(C4)C2)C3)cc1
Second: CC(C)C[C@@H]1CN2C(=NC[C@@H]2C2CCCCC2)N1CCCC1CCCCC1
The IC50 of the first is higher: > 10000 nM for the first, 3740 nM for the second.

`C1CCC([C@H]2CN3C(=NC[C@H]3C3CCCCC3)N2CCC2CC3CCC2C3)CC1` (stereo not given in full) and `C1CCC([C@H]2CN3C(=NC[C@@H]3C3CCCCC3)N2CCC2CC3CCC2C3)CC1` (stereo not given in full) are within 1.5-fold of each other in IC50: 524 nM for the first, 560 nM for the second.

`CC(C)C[C@@H]1CN2C(=NC[C@H]2C2CCCCC2)N1CC1CCC(C)CC1` (stereo not given in full) and `CC(C)C[C@@H]1CN2C(=NC[C@@H]2C2CCCCC2)N1CC1CCC(C)CC1` (stereo not given in full) are within 1.5-fold of each other in IC50: 738 nM for the first, 999 nM for the second.

For `CC1CCC(CN2C3=NC[C@H](C)N3C[C@@H]2C2CCCCC2)CC1` (stereo not given in full), the IC50 was 5060 nM.

biological target: Mu-type opioid receptor (Homo sapiens, UniProt P35372); assay: Binding affinity at mu opioid receptor
Sequence (P35372 whole entry): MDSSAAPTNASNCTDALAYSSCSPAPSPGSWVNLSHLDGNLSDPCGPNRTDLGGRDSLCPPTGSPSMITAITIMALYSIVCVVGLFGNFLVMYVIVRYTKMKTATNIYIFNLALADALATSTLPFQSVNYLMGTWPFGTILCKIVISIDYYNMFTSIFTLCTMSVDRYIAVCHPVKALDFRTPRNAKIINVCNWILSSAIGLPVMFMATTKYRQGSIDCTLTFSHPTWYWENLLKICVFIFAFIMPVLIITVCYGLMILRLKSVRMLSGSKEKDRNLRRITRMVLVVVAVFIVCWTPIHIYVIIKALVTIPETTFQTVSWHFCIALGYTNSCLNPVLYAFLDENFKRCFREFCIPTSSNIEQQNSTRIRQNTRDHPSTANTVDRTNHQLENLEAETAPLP

Going from `COc1ccc(C[C@@H]2CN3C(=NC[C@@H]3C)N2CCC2CC3CCC2C3)cc1` (stereo not given in full) to `COc1ccc(C[C@H]2CN3C(=NC[C@@H]3C)N2CCCC2CCCCC2)cc1`, the IC50 falls from 20300 nM to 421 nM (48-fold). The second is the more potent here.

biological target: Delta-type opioid receptor (Homo sapiens, UniProt P41143); assay: Binding affinity at delta opioid receptor
Sequence (P41143 whole entry): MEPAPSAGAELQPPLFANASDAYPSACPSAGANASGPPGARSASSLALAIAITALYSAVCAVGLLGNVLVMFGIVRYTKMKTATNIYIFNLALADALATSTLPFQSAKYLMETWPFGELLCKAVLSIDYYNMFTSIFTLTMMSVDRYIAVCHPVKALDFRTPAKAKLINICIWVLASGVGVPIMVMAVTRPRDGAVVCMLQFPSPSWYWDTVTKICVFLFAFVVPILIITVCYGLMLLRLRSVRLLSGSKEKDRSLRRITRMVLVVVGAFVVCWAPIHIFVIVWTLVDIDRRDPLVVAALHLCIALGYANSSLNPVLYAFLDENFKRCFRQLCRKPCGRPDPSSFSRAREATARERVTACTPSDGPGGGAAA

First: COc1ccc(C[C@@H]2CN3C(=NC[C@@H]3C)N2CCC2CC3CCC2C3)cc1 (stereo not given in full)
Second: COc1ccc(C[C@H]2CN3C(=NC[C@@H]3C)N2CCCC2CCCCC2)cc1
The IC50 of the first is 2.6-fold lower: 2070 nM for the first, 5460 nM for the second.
